30 compounds from patent US8557800B2, “Sphingosine kinase inhibitors” (Apogee Biotechnology Corporation, priority 2005, dated 2013) can be followed below.

Each structure is given as a SMILES string.

Experiment [1] deals with MCF-7 human breast adenocarcinoma cells. The experiment can be described thus: Cytotoxicity, SRB binding assay. It counts as cell-based. The conditions noted are these: MCF7, inhibition of cell proliferation, 48 h, read-out: MCF-7 IC50. The method, then:
To further assess the biological efficacies of the Compounds in intact cells, each Compound was evaluated for cytotoxicity using human cancer cell lines. These experiments followed methods that have been extensively used. Cell lines tested included MCF-7 human breast adenocarcinoma cells and MCF-10A non-transformed human breast epithelial cells. The indicated cell lines were treated with varying doses of the test Compound for 48 h. Cell survival was then determined using the SRB binding assay (Skehan et al., 1990, J Natl Cancer Inst 82: 1107), and the concentration of compound that inhibited proliferation by 50% (the IC50) was calculated. Values (in μM) represent the mean±sd for replicate trials.
(In general: In SRB staining, fixed cells bind dye roughly in proportion to their protein.)

The next experiment relates to recombinant human SK. Description: Inhibition of recombinant human SK, LC/MS/MS assay. Format: biochemical. The conditions noted are these: 6 μg/ml compound. As to the method:
SK activity is measured by incubation of the recombinant SK with [^3H]sphingosine and 1 mM ATP under defined conditions, followed by extraction of the assay mixture with chloroform:methanol under basic conditions. […] Radioactivity in aliquots of the aqueous phase is then quantified as a measure of [^3H]S1P formation.
In an alternate assay procedure, the recombinant human SK was incubated with unlabeled sphingosine and ATP as described above. After 30 minutes, the reactions were terminated by the addition of acetonitrile to directly extract the newly synthesized S1P. The amount of S1P in the samples is then quantified as follows. C17 base D-erythro-sphingosine and C17 SIP are used as internal standards for sphingosine and S1P, respectively. […] The lipids are then fractionation by High-Performance Liquid Chromatography using a C8-reverse phase column eluted with 1 mM methanolic ammonium formate/2 mM aqueous ammonium formate. […] Calibration curves are generated by plotting the peak area ratios of the synthetic standards for each sphingolipid, and used to determine the normalized amounts of sphingosine and S1P in the samples.
Each Compound of this invention was tested for its ability to inhibit recombinant SK using the LC/MS/MS assay described above.

Usually IC50 stands for the concentration that inhibits the measured activity by half.

Turning to `O=C(NCc1ccc(C(F)(F)F)cc1)C12CC3CC(C1)CC(c1ccc(Cl)cc1)(C3)C2` [Compound 16, 3-(4-Chloro-phenyl)-adamantane-1-carboxylic acid 4-trifluoromethyl-benzylamide], in experiment [1], the IC50 turned out to be 17 µM. For the same compound, the “Recombinant SK (% inhibition)” value in the experiment on recombinant human SK was determined as 8%.

Turning to `Clc1ccc(C23CC4CC(CC(CNCc5ccncc5)(C4)C2)C3)cc1` [Compound 88, [3-(4-Chloro-phenyl)-adamantan-1-ylmethyl]-pyridin-4-ylmethyl-amine], the IC50 in experiment [1] worked out at 11 µM. For the same compound, the “Recombinant SK (% inhibition)” value in the experiment with recombinant human SK is recorded as 1%.

For the compound `O=C(NCc1ccc(Cl)c(C(F)(F)F)c1)C12CC3CC(C1)CC(c1ccc(Cl)cc1)(C3)C2` [Compound 26, 3-(4-Chloro-phenyl)-adamantane-1-carboxylic acid 4-chloro-3-trifluoromethyl-benzylamide], the IC50 in experiment [1] is 19 µM. Besides, the “Recombinant SK (% inhibition)” value in the experiment on recombinant human SK is 36%.

Consider `O=C(NCc1cc(C(F)(F)F)cc(C(F)(F)F)c1)C12CC3CC(C1)CC(c1ccc(Cl)cc1)(C3)C2` [Compound 17, 3-(4-Chloro-phenyl)-adamantane-1-carboxylic acid 3,5-bis-trifluoromethyl-benzylamide], for which, in experiment [1], the IC50 was determined as 17 µM. Further, in the experiment with recombinant human SK, the “Recombinant SK (% inhibition)” value is on record as 56%.

As to `CN(C)c1ccc(CNC(=O)C23CC4CC(C2)CC(c2ccc(Cl)cc2)(C4)C3)cc1` [Compound 31, 3-(4-Chloro-phenyl)-adamantane-1-carboxylic acid 4-dimethylamino-benzylamide], the IC50 in experiment [1] amounted to 74 µM. In the experiment on recombinant human SK, the “Recombinant SK (% inhibition)” value is reported as 74%.

On to `O=C(NCCc1ccc(O)c(O)c1)C12CC3CC(CC(C3)C1)C2` [Compound 43, Adamantane-1-carboxylic acid [2-(3,4-dihydroxy-phenyl)-ethyl]-amide], for which, in experiment [1], the IC50 was determined as 27 µM. Moreover, in the experiment on recombinant human SK, the “Recombinant SK (% inhibition)” value amounted to 0%.

With `O=C(/C=C/c1cnc[nH]1)C12CC3CC(C1)CC(c1ccc(Cl)cc1)(C3)C2` [Compound 135, 1-[3-(4-Chloro-phenyl)-adamantan-1-yl]-3-(1H-imidazol-4-yl)-propenone], the IC50 in experiment [1] is 3 µM. Further, the “Recombinant SK (% inhibition)” value in the experiment with recombinant human SK was 64%.

As for `CN1CCN(NCC23CC4CC(C2)CC(c2ccc(Cl)cc2)(C4)C3)CC1` [Compound 83, [3-(4-Chloro-phenyl)-adamantan-1-ylmethyl]-(4-methyl-piperazin-1-yl)-amine], the IC50 in experiment [1] was 5 µM. In the experiment with recombinant human SK, the “Recombinant SK (% inhibition)” value was 60%.

Take `CC(Nc1ccccc1)C12CC3CC(CC(c4ccccc4)(C3)C1)C2` (stereo not shown) [Compound 93, Phenyl-[1-(3-phenyl-adamantan-1-yl)-ethyl]-amine]: the IC50 in experiment [1] was determined as 15 µM. The “Recombinant SK (% inhibition)” value in the experiment on recombinant human SK was 70%.

Regarding `CCSCCNC(=O)C12CC3CC(C1)CC(c1ccc(Cl)cc1)(C3)C2` [Compound 3, 3-(4-Chloro-phenyl)-adamantane-1-carboxylic acid (2-ethylsulfanyl-ethyl)-amide], in experiment [1], the IC50 was found to be 18 µM. Further, the “Recombinant SK (% inhibition)” value in the experiment with recombinant human SK is listed as 6%.

Consider `Fc1cc(C(F)(F)F)ccc1CNCC12CC3CC(C1)CC(c1ccc(Cl)cc1)(C3)C2` [Compound 78, [3-(4-Chloro-phenyl)-adamantan-1-ylmethyl]-(2-fluoro-4-trifluoromethyl-benzyl)-amine], for which, in experiment [1], the IC50 amounted to 30 µM. Besides, the “Recombinant SK (% inhibition)” value with recombinant human SK was found to be 43%.

Consider `O=C(NCc1ccc(F)c(F)c1)C12CC3CC(C1)CC(c1ccc(Cl)cc1)(C3)C2` [Compound 21, 3-(4-Chloro-phenyl)-adamantane-1-carboxylic acid 3,4-difluoro-benzylamide], for which the IC50 in experiment [1] came to 27 µM. Also, in the experiment with recombinant human SK, the “Recombinant SK (% inhibition)” value was determined as 65%.

As to `O=C(NCc1ccc(Oc2ccccc2)cc1)C12CC3CC(C1)CC(c1ccc(Cl)cc1)(C3)C2` [Compound 34, 3-(4-Chloro-phenyl)-adamantane-1-carboxylic acid 4-phenoxy-benzylamide], the IC50 in experiment [1] is greater than 106 µM. In addition, the “Recombinant SK (% inhibition)” value with recombinant human SK is on record as 0%.

As for `O=C(NCc1ccc(OC(F)(F)F)cc1)C12CC3CC(C1)CC(c1ccc(Cl)cc1)(C3)C2` [Compound 32, 3-(4-Chloro-phenyl)-adamantane-1-carboxylic acid 4-trifluoromethoxy-benzylamide], in experiment [1], the IC50 was found to be 24 µM. Moreover, in the experiment on recombinant human SK, the “Recombinant SK (% inhibition)” value came out at 17%.

Regarding `O=C(NCc1ccc(-c2ccccc2)cc1)C12CC3CC(C1)CC(c1ccc(Cl)cc1)(C3)C2` [Compound 49, 3-(4-Chloro-phenyl)-adamantane-1-carboxylic acid (biphenyl-4-ylmethyl)-amide], the IC50 in experiment [1] was determined as 68 µM. In addition, in the experiment with recombinant human SK, the “Recombinant SK (% inhibition)” value was determined as 33%.

As for `O=C(NCc1ccc(O)c(O)c1)C12CC3CC(CC(C3)C1)C2` [Compound 35, Adamantane-1-carboxylic acid 3,4-dihydroxy-benzylamide], the IC50 in experiment [1] stood at 19 µM. In the experiment on recombinant human SK, the “Recombinant SK (% inhibition)” value is recorded as 87%.

In the case of `O=C(Nc1ncnc2[nH]cnc12)C12CC3CC(C1)CC(c1ccc(Cl)cc1)(C3)C2` [Compound 73, 3-(4-Chloro-phenyl)-adamantane-1-carboxylic acid (9H-purin-6-yl)-amide], the 50% inhibitory concentration (IC50) in experiment [1] is 80 µM. Also, in the experiment on recombinant human SK, the “Recombinant SK (% inhibition)” value came to 53%.

For `O=C(NCCCN1CCCC1)C12CC3CC(C1)CC(c1ccc(Cl)cc1)(C3)C2` [Compound 54, 3-(4-Chloro-phenyl)-adamantane-1-carboxylic acid (3-pyrrolidin-1-yl-propyl)-amide], the IC50 in experiment [1] is 11 µM. Besides, in the experiment with recombinant human SK, the “Recombinant SK (% inhibition)” value was found to be 95%.

For the compound `O=C(NCc1cc(F)cc(F)c1)C12CC3CC(C1)CC(c1ccc(Cl)cc1)(C3)C2` [Compound 20, 3-(4-Chloro-phenyl)-adamantane-1-carboxylic acid 3,5-difluoro-benzylamide], the concentration for half-maximal inhibition (IC50) in experiment [1] worked out at 33 µM. Further, the “Recombinant SK (% inhibition)” value in the experiment with recombinant human SK was determined as 0%.

As to `CC(C)(C)NCCCNC(=O)C12CC3CC(C1)CC(c1ccc(Cl)cc1)(C3)C2` [Compound 53, 3-(4-Chloro-phenyl)-adamantane-1-carboxylic acid (3-tert-butylamino-propyl)-amide], the IC50 in experiment [1] turned out to be 11 µM. Further, the “Recombinant SK (% inhibition)” value in the experiment on recombinant human SK was 52%.

As to `O=C(NCc1cccc(OC(F)(F)F)c1)C12CC3CC(C1)CC(c1ccc(Cl)cc1)(C3)C2` [Compound 33, 3-(4-Chloro-phenyl)-adamantane-1-carboxylic acid 3-trifluoromethoxy-benzylamide], in experiment [1], the IC50 turned out to be 30 µM. The “Recombinant SK (% inhibition)” value in the experiment with recombinant human SK was 10%.

As to `CC(=O)Oc1ccc(NC(=O)C23CC4CC(C2)CC(c2ccc(Cl)cc2)(C4)C3)cc1` [Compound 7, Acetic acid 4-{[3-(4-chloro-phenyl)-adamantane-1-carbonyl]-amino}-phenyl ester], the IC50 in experiment [1] stood at 3 µM. The “Recombinant SK (% inhibition)” value in the experiment with recombinant human SK is given as 100%.

Consider `CSc1ccc(CNC(=O)C23CC4CC(C2)CC(c2ccc(Cl)cc2)(C4)C3)cc1` [Compound 14, 3-(4-Chloro-phenyl)-adamantane-1-carboxylic acid 4-methylsulfanyl-benzylamide], for which the 50% inhibitory concentration (IC50) in experiment [1] came out at 36 µM. In addition, the “Recombinant SK (% inhibition)” value in the experiment with recombinant human SK came to 19%.

For `N#Cc1ccc(/C=C/C(=O)C23CC4CC(C2)CC(c2ccc(Cl)cc2)(C4)C3)cc1` [Compound 131, 4-{3-[3-(4-Chloro-phenyl)-adamantan-1-yl]-3-oxo-propenyl}-benzonitrile], in experiment [1], the half-maximal inhibitory concentration (IC50) was found to be 27 µM. Moreover, the “Recombinant SK (% inhibition)” value with recombinant human SK amounted to 41%.

As to `O=C(NCCc1cccc(Oc2ccccc2)c1)C12CC3CC(C1)CC(c1ccc(Cl)cc1)(C3)C2` [Compound 46, 3-(4-Chloro-phenyl)-adamantane-1-carboxylic acid [2-(3-phenoxy-phenyl)-ethyl]-amide], in experiment [1], the IC50 came out at 91 µM. The “Recombinant SK (% inhibition)” value in the experiment with recombinant human SK is 4%.

As to `O=C(NCc1ccncc1)C12CC3CC(CC(C3)C1)C2` [Compound 60, Adamantane-1-carboxylic acid (pyridin-4-ylmethyl)-amide], the IC50 in experiment [1] was determined as 7 µM. In addition, the “Recombinant SK (% inhibition)” value with recombinant human SK is recorded as 0%.

With `O=C(NCc1ccc(F)c(Cl)c1)C12CC3CC(C1)CC(c1ccc(Cl)cc1)(C3)C2` [Compound 23, 3-(4-Chloro-phenyl)-adamantane-1-carboxylic acid 3-chloro-4-fluoro-benzylamide], the IC50 in experiment [1] is 23 µM. Further, the “Recombinant SK (% inhibition)” value in the experiment on recombinant human SK came out at 0%.

With `O=C(NCc1cc(F)c(F)c(F)c1)C12CC3CC(C1)CC(c1ccc(Cl)cc1)(C3)C2` [Compound 22, 3-(4-Chloro-phenyl)-adamantane-1-carboxylic acid 3,4,5-trifluoro-benzylamide], the half-inhibitory concentration (IC50) in experiment [1] turned out to be 18 µM. Further, the “Recombinant SK (% inhibition)” value in the experiment with recombinant human SK was found to be 56%.

Consider `O=C(NCCN1CCNCC1)C12CC3CC(C1)CC(c1ccc(Cl)cc1)(C3)C2` [Compound 59, 3-(4-Chloro-phenyl)-adamantane-1-carboxylic acid (2-piperazin-1-yl-ethyl)-amide], for which the “Recombinant SK (% inhibition)” value in the experiment with recombinant human SK is given as 0%.

As to `FC(F)(F)Oc1ccc(CNCC23CC4CC(C2)CC(c2ccc(Cl)cc2)(C4)C3)cc1` [Compound 80, [3-(4-Chloro-phenyl)-adamantan-1-ylmethyl]-(4-trifluoromethoxy-benzyl)-amine], in the experiment with recombinant human SK, the “Recombinant SK (% inhibition)” value was 5%.
